Measurements: patent US7332513B2, “Thiazole-based nitric oxide donors having acyl substituent(s) and uses thereof” (priority 2004, dated 2008)
“Also recorded” adds a separate entry of the source.

Legend:
[1] = test system: c-GMP in slices of thoracic aorta of rats; experiment: Cyclic-GMP measurement in aortic rat tissue (radioimmunoassay); type: cell-based; conditions: for cGMP Post-infusion: rat aorta, post-infusion (repeated treatment)
Description: GTN (10^−6 M) was added to the chamber and, 1 minute after exposure to the drug, rings (usually 3-5) were taken, wrapped with aluminum foil and immediately frozen in liquid nitrogen for storage. Control sample group was treated with the vehicle solution only. At the time of analysis, rings were thawed, blotted over a dry gauzed and weighted. A known weight of tissue was homogenized in 2 ml ice-cold modified Hank's balanced salt solution containing (in gram/liter) NaCl 8; KCl 0.4; glucose 1; KH2PO4 0.06; Na2HPO4 0.047; Phenol red 0.017 and further containing 25 mM EDTA (disodium salt). The homogenate was centrifuged at 4000 g (force units) for 10 minutes at 2-4° C. and the supernatant was thereafter transferred into fresh pre-cooled test tube containing 1 ml of acetonitrile. The tubes were vortex mixed for a few seconds and subsequently centrifuged at 4000 g for 5 minutes at 2-4° C., to remove the precipitated protein. Each supernatant was transferred into a clean test tube and evaporated to dryness under a stream of nitrogen at 55° C. The dry residue was reconstituted with 10 volumes of Tris-EDTA buffer pH 7.5 (0.05 M Tris containing 4 mM EDTA). Aliquots of 100 μl of the reconstituted solution in duplicate were used for c-GMP measurements using Amersham RIA kit, as is described in Haj-Yehia & Benet [Pharmacology, 1995, 273, 1, pp. 94-100]. Standard curves were plotted with six concentrations (0, 0.5, 1, 2, 4 and 8 pmoles of c-GMP per tube).
The NO-tolerance effect of GTN and NO-donor compounds according to the present invention was measured by following the production of c-GMP in slices of thoracic aorta of rats. Thus, the production of c-GMP was measured as described in the methods section above for the reference NO-donor compound GTN, and for the NO-donors of the present invention Pet-2, Pet-3, Pet-7, Pet-8, Pet-10, Pet-12, Pet-24, Pet-59, Pet-147, Pet-149, Pet-152, Pet-154 and Pet-155.

[2] = test system: anesthetized hypertensive Sprague-Dawley male rats; experiment: Hypotensive effects: mean arterial pressure after iv bolus in phenylephrine-treated rats; type: in vivo, rat
Text: These techniques were also used to detect tolerance induction by the NO-donors of the present invention and by GTN. For c-GMP levels and tolerance development, the rat's thoracic aorta was isolated after exposure to the tested compound in vivo, and measured as described above in the in vitro assays.
Mean arterial pressure (MAP) was monitored and determined during bolus infusion of Pet-2, Pet-3, Pet-7, Pet-8, Pet-12 and Pet-13. Briefly, polyethylene catheters (PE50) were inserted into the carotid artery and into the jugular vein of anesthetized hypertensive Sprague-Dawley male rats (200-300 grams). A blood pressure recorder was placed within the carotid artery. Phenylephrine (0.1 mg) was then injected and the mean arterial blood pressure (MABP) was monitored continuously until a stable baseline was reached. The hypotensive effects of intravenous (iv) bolus doses (0.1 mg of each tested compound) administered intravenously at the jugular vein in minimal volume of vehicle (0.2 ml per dose) were evaluated. Five minutes were allowed between each dose, during which the maximal decrease in MAP was recorded and a dose-response graph comparing the hypotensive effect of the compounds was constructed.

isolated rat aorta = experiment: In vitro induction of tolerance to NO releasing compounds (vasorelaxation of pre-exposed aortic rings, incl. cross-tolerance); type: cell-based; conditions: for tolerance induction after pre-treatment with the same compound: rat aorta pre-treated with epinephrine and then 0.44 mM of the compound
Description: Aortic rings were prepared as described hereinabove, and were exposed to 0.44 mM GTN (vehicle was water:ethanol:propyleneglycol at proportional ratio of 1:1:1) for 1 hour before CCRC construction, to thereby induce tolerance to nitroglycerine. At the end of the tolerance induction period, rings were thrice washed with the path buffer (Krebs-bicrbonate) every 15 minutes for the following hour and then CCRC for vasorelaxation on GTN-induced tolerance rings were constructed for GTN (pretreated versus untreated rings, FIG. 15), in order to verify the ability to induce and measure GTN tolerance induction in vitro
Attempted induction of tolerance to the NO-donating compounds of the present invention was performed under the same conditions as for GTN. Thus, in an exemplary experiment, rings were exposed to 0.44 mM solution of Pet-3 in the attempt to induce tolerance for Pet-3. CCRC were then measured for the vasorelaxing effect of Pet-3 on a group of rings which were pre-exposed to Pet-3 as to induce tolerance to Pet-3, and for an untreated control group. The above protocol was repeated with Pet-2, Pet-7, Pet-8, Pet-12, Pet-24, Pet-43, Pet-149 and Pet-152.
Cross-tolerance studies were conducted using the same technique described above for measuring vasorelaxation of aortic rings from rats. Two groups of aortic rings samples were pre-treated with GTN, then one group was measured for vasorelaxation by GTN and the second group for vasorelaxation by Pet-12, an exemplary NO-donor according to the present invention. For the opposite cross-tolerance studies, two groups of aortic rings samples were pre-treated with Pet-12, then one group was measured for vasorelaxation by GTN and the second group for vasorelaxation by Pet-12.

[3] = test system: cGMP in thoracic aorta of rats treated in vivo; experiment: Induction of in vivo nitrate tolerance (16 hour infusion, then cGMP in isolated aorta); set-up: species or system rat; conditions: rats infused in vivo 16 hours, aorta re-exposed to the compound
Description: Male Sprague Dawley rats (220 to 250 grams) were housed under constant temperature and humidity conditions. Light was maintained at a 12/12 light dark cycle. Except for 12 hours before the experiment, when food fasting was initiated, all rats had free access to standard rat pellet diet and tap water. The animals were anesthetized by intraperitoneal injection of ketamine and xylazine combination (50 and 10 milligram per kilogram, respectively). […] The catheters were filled with normal saline solution containing 1000 IU/ml of heparin and plugged with a metal pin. Catheters were externalized to the back of the neck region and secured by a polyester felt disk.
After implantation, the rats were individually housed until they regained their preoperative weight and appeared healthy (3 to 4 days post-operation). At this time point (day 0), an osmotic mini-pump (Alza Corp., Palo Alto, Calif.) delivering constant volume (10 μl/hour) of vehicle or drug was connected to one of the intravenous catheters.
For inducing tolerance to the tested NO-donor according to the present invention, the animals received 200 μg/hour of the tested compound for 16 hours (short-term-induced tolerance). A similar number of animals were processed by the same surgical procedure and received the vehicle alone (10 μl/hour of a solution consisting of 30% ethanol and 30% propylene glycol in sterile distilled water for injection).
At the end of the infusion periods used for the development of tolerance (16 hour), the rats were anesthetized as described above, the two catheters were externalized and the delivering catheters were disconnected from the mini-pump. The abdomen was opened by midline incision and the thoracic aorta were isolated, washed and cleaned from the surrounding tissues. Strips of the treated aortas were pooled in chambers containing Krebs-Hanseliet buffer (10 ml), and exposed to 1 μM of the tested NO-donor (final concentration) for 120 seconds. The tissues were quickly collected and frozen in liquid nitrogen for cGMP measurement, described hereinabove.

Structure (SMILES)	cGMP Post-infusion [1]	c-GMP level following a repeated treatment ([1]; slices of thoracic aorta of rats)	effect on MAP following successive administrations ([2]; iv bolus doses, rats)	tolerance induction after pre-treatment with the same compound (isolated rat aorta)	tolerance in vivo: cGMP level in aorta following repeated treatment [3]	hypotensive / vasorelaxation effect on heightened mean arterial blood pressure ([2]; rats pre-treated in vivo with phenylephrine, iv bolus 10-100 micrograms)	vasorelaxation in rings pre-treated with GTN (cross-tolerance) (isolated rat aorta; rat aorta pre-treated with epinephrine and then with GTN)	vasorelaxation in rings pre-treated with Pet-12 (cross-tolerance) (isolated rat aorta; rat aorta pre-treated with epinephrine and then with Pet-12)
O=[N+]([O-])OCC(CO[N+](=O)[O-])O[N+](=O)[O-] [GTN, glyceryl trinitrate, reference compound]	45 ± 12^¥ pmol/g tissue	significantly reduced	attenuation	tolerance induced	tolerance inducing effect; also recorded: decreased	–	–	–
Cc1nc(-c2cccnc2)sc1CCO[N+](=O)[O-] [Pet-12, 3-[4-Methyl-5-(2-nitrooxy-ethyl)-thiazole-2-yl]-pyridine]	112 ± 12 pmol/g tissue	–	–	absence of tolerance induction	absence of tolerance induction; also recorded: absence of tolerance effect; also recorded: lack of tolerance induction	vasorelaxation effect	absence of tolerance induction effect; also recorded: no effect on the vasorelaxation capacity	absence of tolerance induction effect; also recorded: does not evoke tolerance to itself not to GTN
